Experimental data published in PubChem BioAssay (NCI).
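These data come from cells grown in 96-well plates and exposed to compound for 48 hours at five concentrations. At the TGI there is no net growth.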

Assays:
Experiment in all cases: NCI-60 cell line screen, 48 h
OVCAR-5 ovarian = tested on: OVCAR-5 ovarian
HOP-62 NSCLC = tested on: HOP-62 NSCLC
MDA-N = tested on: MDA-N
OVCAR-8 ovarian = tested on: OVCAR-8 ovarian
M14 melanoma = tested on: M14 melanoma
TK-10 renal = tested on: TK-10 renal
OVCAR-4 ovarian = tested on: OVCAR-4 ovarian
M19-MEL melanoma = tested on: M19-MEL melanoma
HCT-116 colon = tested on: HCT-116 colon
IGROV1 ovarian = tested on: IGROV1 ovarian
PC-3 prostate = tested on: PC-3 prostate
NCI-H226 lung = tested on: NCI-H226 lung
SW-620 colon = tested on: SW-620 colon
RXF-631 renal = tested on: RXF-631 renal
MCF7 breast = tested on: MCF7 breast
SNB-19 CNS = tested on: SNB-19 CNS
ACHN renal = tested on: ACHN renal
SK-MEL-5 melanoma = tested on: SK-MEL-5 melanoma
786-0 renal = tested on: 786-0 renal
HOP-92 NSCLC = tested on: HOP-92 NSCLC
RXF 393 renal = tested on: RXF 393 renal
BT-549 breast = tested on: BT-549 breast
EKVX NSCLC = tested on: EKVX NSCLC
MALME-3M melanoma = tested on: MALME-3M melanoma
K-562 leukemia = tested on: K-562 leukemia
SNB-75 CNS = tested on: SNB-75 CNS
HT29 colon = tested on: HT29 colon
NCI-H460 lung = tested on: NCI-H460 lung
SF-539 CNS = tested on: SF-539 CNS
A549 NSCLC = tested on: A549 NSCLC
CCRF-CEM leukemia = tested on: CCRF-CEM leukemia
NCI-H522 lung = tested on: NCI-H522 lung
UACC-62 melanoma = tested on: UACC-62 melanoma
OVCAR-3 ovarian = tested on: OVCAR-3 ovarian
SK-MEL-2 melanoma = tested on: SK-MEL-2 melanoma
HOP-18 NSCLC = tested on: HOP-18 NSCLC
HCT-15 colon = tested on: HCT-15 colon
NCI/ADR-RES ovarian = tested on: NCI/ADR-RES ovarian
SK-MEL-28 melanoma = tested on: SK-MEL-28 melanoma
DU-145 prostate = tested on: DU-145 prostate
NCI-H23 lung = tested on: NCI-H23 lung
RPMI-8226 leukemia = tested on: RPMI-8226 leukemia
SK-OV-3 ovarian = tested on: SK-OV-3 ovarian
UO-31 renal = tested on: UO-31 renal
DLD-1 colon = tested on: DLD-1 colon
UACC-257 melanoma = tested on: UACC-257 melanoma
MDA-MB-231 breast = tested on: MDA-MB-231 breast
U251 CNS = tested on: U251 CNS
SF-268 CNS = tested on: SF-268 CNS
KM20L2 colon = tested on: KM20L2 colon
A498 renal = tested on: A498 renal
DMS 273 small cell lung = tested on: DMS 273 small cell lung
KM12 colon = tested on: KM12 colon
LOX IMVI melanoma = tested on: LOX IMVI melanoma
MDA-MB-435 = tested on: MDA-MB-435
HL-60(TB) leukemia = tested on: HL-60(TB) leukemia
SN12C renal = tested on: SN12C renal
COLO 205 colon = tested on: COLO 205 colon
LXFL 529 NSCLC = tested on: LXFL 529 NSCLC
SNB-78 CNS = tested on: SNB-78 CNS
MOLT-4 leukemia = tested on: MOLT-4 leukemia
HCC-2998 colon = tested on: HCC-2998 colon
HS 578T breast = tested on: HS 578T breast
DMS 114 small cell lung = tested on: DMS 114 small cell lung
XF 498 CNS = tested on: XF 498 CNS
SF-295 CNS = tested on: SF-295 CNS
CAKI-1 renal = tested on: CAKI-1 renal
SR leukemia = tested on: SR leukemia

SMILES: CCC1(OC(=O)CNC)C(=O)OCc2c1cc1n(c2=O)Cc2cc3ccccc3nc2-1 (centres undefined)
- TGI (OVCAR-5 ovarian): 221 nM
- TGI (HOP-62 NSCLC): < 14.3 nM
- TGI (MDA-N): 386 nM
- TGI (OVCAR-8 ovarian): > 24400 nM
- TGI (M14 melanoma): 1270 nM
- TGI (TK-10 renal): 30400 nM
- TGI (OVCAR-4 ovarian): 493 nM
- TGI (M19-MEL melanoma): 823 nM
- TGI (HCT-116 colon): 264 nM
- TGI (IGROV1 ovarian): 2210 nM
- TGI (PC-3 prostate): > 100000 nM
- TGI (NCI-H226 lung): 64.1 nM
- TGI (SW-620 colon): 19500 nM
- TGI (RXF-631 renal): 57.5 nM
- TGI (MCF7 breast): 198 nM
- TGI (SNB-19 CNS): 6120 nM
- TGI (ACHN renal): 18.4 nM
- TGI (SK-MEL-5 melanoma): 33.7 nM
- TGI (786-0 renal): 15.2 nM
- TGI (HOP-92 NSCLC): 1560 nM
- TGI (RXF 393 renal): 115 nM
- TGI (BT-549 breast): 5110 nM
- TGI (EKVX NSCLC): 17000 nM
- TGI (MALME-3M melanoma): 1310 nM
- TGI (K-562 leukemia): > 60100 nM
- TGI (SNB-75 CNS): 84.2 nM
- TGI (HT29 colon): 2640 nM
- TGI (NCI-H460 lung): 399 nM
- TGI (SF-539 CNS): < 20.3 nM
- TGI (A549 NSCLC): 958 nM
- TGI (CCRF-CEM leukemia): 468 nM
- TGI (NCI-H522 lung): 285 nM
- TGI (UACC-62 melanoma): 18.6 nM
- TGI (OVCAR-3 ovarian): 401 nM
- TGI (SK-MEL-2 melanoma): 577 nM
- TGI (HOP-18 NSCLC): 812 nM
- TGI (HCT-15 colon): > 100000 nM
- TGI (NCI/ADR-RES ovarian): 15.1 nM
- TGI (SK-MEL-28 melanoma): 2700 nM
- TGI (DU-145 prostate): 12.4 nM
- TGI (NCI-H23 lung): 110 nM
- TGI (RPMI-8226 leukemia): 415 nM
- TGI (SK-OV-3 ovarian): 152 nM
- TGI (UO-31 renal): 85.6 nM
- TGI (DLD-1 colon): 26800 nM
- TGI (UACC-257 melanoma): 762 nM
- TGI (MDA-MB-231 breast): 3940 nM
- TGI (U251 CNS): 293 nM
- TGI (SF-268 CNS): 709 nM
- TGI (KM20L2 colon): 2050 nM
- TGI (A498 renal): 104 nM
- TGI (DMS 273 small cell lung): < 14.4 nM
- TGI (KM12 colon): 1460 nM
- TGI (LOX IMVI melanoma): 137 nM
- TGI (MDA-MB-435): 279 nM
- TGI (HL-60(TB) leukemia): 159 nM
- TGI (SN12C renal): 849 nM
- TGI (COLO 205 colon): 1540 nM
- TGI (LXFL 529 NSCLC): 3640 nM
- TGI (SNB-78 CNS): > 86900 nM
- TGI (MOLT-4 leukemia): 63.1 nM
- TGI (HCC-2998 colon): 1570 nM
- TGI (HS 578T breast): 40800 nM

SMILES: CCOC(=O)NC(=O)c1cn(CCCCCCCCCCC(=O)NCCCN2CCN(CCCNC(=O)CCCCCCCCCCn3cc(C(=O)NC(=O)OCC)c(=O)[nH]c3=O)CC2)c(=O)[nH]c1=O
- TGI (OVCAR-5 ovarian): > 100000 nM
- TGI (HOP-62 NSCLC): > 10000 nM
- TGI (OVCAR-8 ovarian): > 100000 nM
- TGI (M14 melanoma): > 10000 nM
- TGI (TK-10 renal): > 100000 nM
- TGI (DMS 114 small cell lung): > 100000 nM
- TGI (M19-MEL melanoma): > 100000 nM
- TGI (HCT-116 colon): > 100000 nM
- TGI (SW-620 colon): > 100000 nM
- TGI (SNB-19 CNS): > 100000 nM
- TGI (ACHN renal): > 100000 nM
- TGI (786-0 renal): > 100000 nM
- TGI (HOP-92 NSCLC): > 100000 nM
- TGI (MALME-3M melanoma): > 100000 nM
- TGI (K-562 leukemia): > 100000 nM
- TGI (SNB-75 CNS): > 100000 nM
- TGI (HT29 colon): > 100000 nM
- TGI (NCI-H460 lung): > 100000 nM
- TGI (SF-539 CNS): > 100000 nM
- TGI (A549 NSCLC): > 100000 nM
- TGI (CCRF-CEM leukemia): > 100000 nM
- TGI (NCI-H522 lung): > 10000 nM
- TGI (UACC-62 melanoma): > 100000 nM
- TGI (OVCAR-3 ovarian): > 10000 nM
- TGI (SK-MEL-2 melanoma): > 100000 nM
- TGI (HOP-18 NSCLC): > 100000 nM
- TGI (HCT-15 colon): > 100000 nM
- TGI (SK-MEL-28 melanoma): > 100000 nM
- TGI (NCI-H23 lung): > 100000 nM
- TGI (SK-OV-3 ovarian): > 100000 nM
- TGI (UO-31 renal): > 100000 nM
- TGI (XF 498 CNS): > 100000 nM
- TGI (SF-295 CNS): > 100000 nM
- TGI (CAKI-1 renal): > 10000 nM
- TGI (DLD-1 colon): > 100000 nM
- TGI (UACC-257 melanoma): > 100000 nM
- TGI (U251 CNS): > 100000 nM
- TGI (SF-268 CNS): > 100000 nM
- TGI (KM20L2 colon): > 100000 nM
- TGI (A498 renal): > 100000 nM
- TGI (DMS 273 small cell lung): > 100000 nM
- TGI (KM12 colon): > 100000 nM
- TGI (LOX IMVI melanoma): > 100000 nM
- TGI (HL-60(TB) leukemia): > 100000 nM
- TGI (SN12C renal): > 100000 nM
- TGI (SR leukemia): > 100000 nM
- TGI (COLO 205 colon): > 100000 nM
- TGI (LXFL 529 NSCLC): > 100000 nM
- TGI (SNB-78 CNS): > 100000 nM
- TGI (MOLT-4 leukemia): > 100000 nM
- TGI (HCC-2998 colon): > 100000 nM
